The record followed here is ChEMBL document CHEMBL1201862, “PubChem BioAssay data set” (2004).

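Test compounds were applied to cells in 96-well plates for 48 hours at 5 doses. Abbreviation: GI50, concentration required for 50% inhibition of growth.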 Calls of active or inactive are those of the source. No stated cut-off is given here; in the data, active = GI50 up to about 1.1 µM and inactive = higher. Some results are limits rather than exact numbers.

Test systems include CCRF-CEM; A549; UACC-257; OVCAR-5; NCI-H460; SF-295; UACC-62; SK-MEL-2; TK-10; MOLT-4; 786-0; U-251; NCI-H23; SNB-19; DMS-114; HOP-62; MDA-N; PC-3; MDA-MB-435; MCF7.
What all share (assay): NCI anticancer screen, dose series, 48 h

Turning to `O=C(O)C1Cc2[nH]cnc2CN1` (configuration not stated), the GI50 with CCRF-CEM, with A549, in the experiment with UACC-257, in the experiment on OVCAR-5, in the experiment with NCI-H460 and in the experiment on SF-295 was > 100 µM (inactive) throughout. For the same compound, the GI50 in the experiment on UACC-62, with SK-MEL-2, in the experiment on TK-10, in the experiment with MOLT-4, with 786-0 and in the experiment on U-251 was > 100 µM (inactive) throughout. Further, the GI50 in the experiment on NCI-H23, in the experiment with SNB-19 and in the experiment with DMS-114 was > 100 µM (inactive) throughout.

As for `CCOC(=O)/C(=C/c1ccc(C(F)(F)F)cc1)N(CC)CC`, the GI50 in the experiment on CCRF-CEM is > 100 µM (inactive); in the experiment on A549, 38.8 µM (inactive); in the experiment with UACC-257, 66.8 µM (inactive); in the experiment on OVCAR-5, 87.1 µM (inactive); in the experiment with NCI-H460 it was > 100 µM (inactive); in the experiment with SF-295, 84.7 µM (inactive). Also, the GI50 with UACC-62 was 35.4 µM (inactive); in the experiment on HOP-62, 42.6 µM (inactive); in the experiment on SK-MEL-2, 25.7 µM (inactive); in the experiment with TK-10, > 100 µM (inactive); in the experiment on MOLT-4, 96.4 µM (inactive); in the experiment on 786-0 it was > 100 µM (inactive). The GI50 in the experiment on U-251 was 41 µM (inactive); with NCI-H23, 37.3 µM (inactive); with DMS-114, 30.8 µM (inactive).

With `CC1(CCC2C=CCC2)CCCNC1=S` (configuration not stated), the GI50 in the experiment with CCRF-CEM, with MDA-N, with A549, in the experiment on UACC-257, in the experiment with OVCAR-5 and with NCI-H460 was > 10 µM (inactive) each time. Besides, the GI50 with PC-3, in the experiment with MDA-MB-435, with SF-295, in the experiment with UACC-62, with HOP-62 and in the experiment on SK-MEL-2 was > 10 µM (inactive) in each case. Moreover, the GI50 in the experiment with TK-10, in the experiment on MOLT-4, in the experiment with MCF7, in the experiment with 786-0, with U-251 and with NCI-H23 was > 10 µM (inactive) throughout. The GI50 in the experiment on SNB-19 was > 10 µM (inactive).

On to `COc1cc(/C=C2\C(=O)N(c3cccc([N+](=O)[O-])c3)C(c3ccccc3)S2(=O)=O)cc(OC)c1OC` (configuration not stated), for which the GI50 was 62.2 µM (inactive) with CCRF-CEM; 31.1 µM (inactive) in the experiment with MDA-N; > 100 µM (inactive) with A549; > 100 µM (inactive) with UACC-257; > 100 µM (inactive) in the experiment on OVCAR-5; > 100 µM (inactive) with NCI-H460. The GI50 with PC-3 is > 100 µM (inactive); in the experiment on MDA-MB-435 it was 32.3 µM (inactive); with SF-295, 97.5 µM (inactive); in the experiment with UACC-62, 80.7 µM (inactive); in the experiment on HOP-62, > 100 µM (inactive); in the experiment on SK-MEL-2, > 100 µM (inactive). The GI50 with TK-10 is > 100 µM (inactive); with MOLT-4, 74 µM (inactive); in the experiment on MCF7 it was 39.7 µM (inactive); with 786-0, > 100 µM (inactive); with U-251, > 100 µM (inactive); with NCI-H23, > 100 µM (inactive). Also, the GI50 with SNB-19 was > 100 µM (inactive).

With `COc1ccc2c(c1)CCc1c-2[nH]c2ccc(OC)cc12`, the GI50 with CCRF-CEM is 14.4 µM (inactive); in the experiment with MDA-N, > 100 µM (inactive); in the experiment on A549 it was > 100 µM (inactive); with UACC-257, > 100 µM (inactive); in the experiment with OVCAR-5 it was > 100 µM (inactive); in the experiment on NCI-H460 it was > 100 µM (inactive). Moreover, the GI50 with PC-3, with MDA-MB-435, in the experiment on SF-295, in the experiment on UACC-62, with HOP-62 and in the experiment with SK-MEL-2 was > 100 µM (inactive) throughout. The GI50 in the experiment with TK-10, in the experiment on MOLT-4, in the experiment on MCF7, with 786-0, with U-251 and in the experiment on NCI-H23 was > 100 µM (inactive) throughout. Also, the GI50 with SNB-19 is > 100 µM (inactive).

Turning to `C=CC(C)(C)/C=C/c1ccc(O)cc1`, the GI50 with CCRF-CEM is 39.3 µM (inactive); in the experiment with MDA-N, 35 µM (inactive); in the experiment with A549, 29.1 µM (inactive); with UACC-257 it was 24 µM (inactive); with OVCAR-5, 46.6 µM (inactive); with NCI-H460 it was 19.8 µM (inactive). For the same compound, the GI50 was 28 µM (inactive) in the experiment with PC-3; 37.9 µM (inactive) with MDA-MB-435; 27 µM (inactive) in the experiment on SF-295; 42.7 µM (inactive) in the experiment with UACC-62; 58.2 µM (inactive) with HOP-62; 23.4 µM (inactive) in the experiment on SK-MEL-2. The GI50 was 36.1 µM (inactive) with TK-10; 38.5 µM (inactive) in the experiment on MOLT-4; 35.7 µM (inactive) in the experiment with MCF7; 27.7 µM (inactive) in the experiment on 786-0; 30 µM (inactive) in the experiment on U-251; 31.8 µM (inactive) in the experiment on NCI-H23. For the same compound, the GI50 in the experiment on SNB-19 was 44.3 µM (inactive).

With `CC1CN(c2ccc(Cl)cc2)CC(C)(C)OC(=O)O1` (configuration not stated), the GI50 in the experiment with CCRF-CEM, in the experiment with A549, with UACC-257, with OVCAR-5, with NCI-H460 and in the experiment with SF-295 was > 100 µM (inactive) in each case. Also, the GI50 with UACC-62, in the experiment with HOP-62, with SK-MEL-2, with TK-10, in the experiment on 786-0 and in the experiment with U-251 was > 100 µM (inactive) throughout. The GI50 with NCI-H23, in the experiment with SNB-19 and with DMS-114 was > 100 µM (inactive) in each case.

On to `CC1=C(C)CC2(C=C(C(C)(C)C)C(=O)C(C(C)(C)C)=C2)SC1`, for which the GI50 is 19.8 µM (inactive) in the experiment with CCRF-CEM; 27.2 µM (inactive) in the experiment on MDA-N; 21.9 µM (inactive) in the experiment on A549; 26.6 µM (inactive) in the experiment with UACC-257; 20.1 µM (inactive) in the experiment with OVCAR-5; 27 µM (inactive) in the experiment on NCI-H460. The GI50 in the experiment on PC-3 is 26.7 µM (inactive); in the experiment on MDA-MB-435, 19.5 µM (inactive); in the experiment with SF-295, 16 µM (inactive); in the experiment with UACC-62, 29.2 µM (inactive); with HOP-62, 19.3 µM (inactive); with SK-MEL-2 it was 12.3 µM (inactive). The GI50 was 18.6 µM (inactive) with TK-10; 27.4 µM (inactive) in the experiment with MOLT-4; 15.6 µM (inactive) with MCF7; 17.9 µM (inactive) with 786-0; 15.6 µM (inactive) in the experiment with U-251; 18.5 µM (inactive) with NCI-H23. The GI50 with SNB-19 is 17.3 µM (inactive).

For `CC1SC2(CCCCC2)N(NC(=O)CSc2nc3ccc(Cl)cc3c(=O)n2-c2ccccc2)C1=O` (configuration not stated), the GI50 was 34.4 µM (inactive) in the experiment on CCRF-CEM; 18.3 µM (inactive) in the experiment with MDA-N; 28.8 µM (inactive) in the experiment on A549; 22.8 µM (inactive) in the experiment with UACC-257; 25.7 µM (inactive) in the experiment with OVCAR-5; 16.8 µM (inactive) with NCI-H460. For the same compound, the GI50 with PC-3 was 23.2 µM (inactive); in the experiment on MDA-MB-435, 23.4 µM (inactive); with SF-295, 18.5 µM (inactive); with UACC-62 it was 18 µM (inactive); in the experiment on HOP-62, 18 µM (inactive); in the experiment on SK-MEL-2, 17.3 µM (inactive). Also, the GI50 with TK-10 is 47.1 µM (inactive); with MOLT-4, 7.53 µM (inactive); with MCF7, 15.3 µM (inactive); in the experiment on 786-0, 18.2 µM (inactive); in the experiment with U-251 it was 17.5 µM (inactive); in the experiment on NCI-H23, 23.2 µM (inactive). In addition, the GI50 in the experiment on SNB-19 was 24.1 µM (inactive).

On to `N=c1nc2n(cc1F)[C@@H]1O[C@H](CO)[C@@H](O)[C@@H]1O2`, for which the GI50 is < 0.0122 µM (active) in the experiment on CCRF-CEM; > 100 µM (inactive) in the experiment on MDA-N; 0.335 µM (active) in the experiment with A549; > 23.6 µM (inactive) in the experiment on UACC-257; > 100 µM (inactive) in the experiment with OVCAR-5; 0.286 µM (active) in the experiment with NCI-H460. For the same compound, the GI50 is > 100 µM (inactive) in the experiment on PC-3; 0.658 µM (active) in the experiment on MDA-MB-435; 49.9 µM (inactive) with SF-295; > 92.5 µM (inactive) in the experiment on UACC-62; 2.36 µM (inactive) in the experiment with HOP-62; > 100 µM (inactive) in the experiment with SK-MEL-2. In addition, the GI50 in the experiment on TK-10 was > 75.5 µM (inactive); in the experiment with MOLT-4, 0.0336 µM (active); in the experiment with MCF7, 1.14 µM (inactive); with 786-0, 4.46 µM (inactive); in the experiment with U-251, 24.8 µM (inactive); with NCI-H23 it was 2.29 µM (inactive). In addition, the GI50 in the experiment with SNB-19 is > 92.9 µM (inactive).

As to `N#Cc1cc(N(CCCl)CCCl)c([N+](=O)[O-])cc1[N+](=O)[O-]`, the GI50 in the experiment on CCRF-CEM is 19.2 µM (inactive); in the experiment with MDA-N, > 100 µM (inactive); in the experiment with A549 it was 83.8 µM (inactive); in the experiment with UACC-257 it was > 100 µM (inactive); in the experiment on OVCAR-5, > 100 µM (inactive); in the experiment with NCI-H460, 18.6 µM (inactive). The GI50 in the experiment with PC-3, in the experiment on MDA-MB-435, in the experiment with SF-295, with UACC-62, with HOP-62 and in the experiment on SK-MEL-2 was > 100 µM (inactive) in each case. The GI50 with TK-10 was > 100 µM (inactive); with MOLT-4, 24 µM (inactive); in the experiment with MCF7, 86.3 µM (inactive); with 786-0, 81.1 µM (inactive); in the experiment on U-251, > 100 µM (inactive); in the experiment with NCI-H23, > 100 µM (inactive). Besides, the GI50 in the experiment on SNB-19 is > 100 µM (inactive).
